Assays:
[1] = test system: MV4-11 cell Bab/c nude mouse tumor model; assay: In vivo tumor growth inhibition experiment
Experimental: Xenotransplantation in immunodeficient mice is an effective model for testing in vivo antitumor activity of compounds in animals. Bab/c immunodeficient mice are one of the most commonly used tumor cell xenografts. […] Log-phase MV4-11 cells were collected in a 50 ml of centrifuge tube (Corning), centrifuged at 1,700 rpm for 3 minutes, and the supernatant was discarded. Cells were suspended in a 50 ml 1×RPMI 1640 serum-free medium, and centrifuged, the supernatant was discarded and resuspension was performed. The cells were counted (Countess® Automated Cell Counting Apparatus, Invitrogen), prepared into […], placed on ice, and inoculated subcutaneously with 10×10^6 (0.2 ml) to the right back of 6-8-week female Bab/c nude mice (about 20 g in weight) (purchased from Shanghai Sippr-BK Experimental Animal Co., Ltd., Animal Center of Shanghai University of Traditional Chinese Medicine, approved by Ethical Committee of Shanghai University of Traditional Chinese Medicine). When the tumor grew to a size of 100-200 mm^3, animals were randomly grouped and earmarked and weighed. The treatment group consisted of 3 to 6 nude mice in each group. Drugs were prepared into different concentrations of milky suspension with a solvent PTP solution (30% polyethylene glycol 400, 0.5% Tween-80, 2.5% propylene glycol). Animals were given by oral gavage continuously at a concentration of 0.1 ml/10 g body weight, with a dose range of 0.1-200 mg/kg (the purity of the test compound of the present invention was 99% or more, and the proportion of single impurity was not more than 0.1%). In the control group, 3 to 6 nude mice in each group were given the same volume (0.1 ml/10 g body weight) of solvent PTP solution, and the tumors were measured 3 to 4 times per week. When the average tumor volume in the control group reached 1500 mm^3, or on the 28th day of administration, the experiment ended, then the tumor was weighed and subjected to molecular pathology assay.
The tumor volume was calculated as V=½a×b^2, where a is the length and b is the width. The relative tumor volume (RTV) was calculated based on the measured results and the formula was RTV=Vt/V0, where V0 is the measured tumor volume when administered in divided cages (i.e., do), and Vt is the tumor volume at each measurement.

NCI-H292 (EGFR WT) = assay: In vitro growth inhibition (GI50), NCI-H292; assay type: cell-based; settings: Homo sapiens
Excerpt: Tumor cell line is an effective cell model for studying the inhibition of tumor cell growth or proliferation in vitro. In the present invention, a representative tumor cell line was selected to determine the cell growth inhibition activity of the present compound. All cell lines used were from ATCC, DSMZ, and the Cell Bank of the Chinese Academy of Sciences. Cell culture conditions and methods were in accordance with the requirements of each cell line. Cells were subcultured in vitro for no more than 3 passages each time, and as required, single-clone purification and identification of cell lines could be carried out.
The cell culture media used were RPMI1640 (Gibco), MEM (Gibco), McCOY'S5A (Gibco), and IMDM (Gibco). The complete medium was prepared by supplement with 5˜20% fetal calf serum (Gibco), 1% double-antibiotics (10000 units/mL penicillin and 10000 units/mL), 2 mM glutamine or 1 mM sodium pyruvate, respectively.
Human epidermal cancer cell line A431 (EGFR WT, amplification and high expression, from Shanghai Cell Bank of Chinese Academy of Sciences and ATCC), human lung cancer cell line NCI-H292 (EGFR WT, purchased from Shanghai Cell Bank of Chinese Academy of Sciences), NSCLC cell lines PC-9 and HCC827 (EGFR exon19 E746-A750 deletion, two cell lines are sensitive to the first-generation EGFR PTK inhibitor), NSCLC cell line NCI-H1975 (EGFR L858R/T790M and the first-generation EGFR inhibitor resistance, ATCC) were cultured with 1×RPMI1640 complete medium (supplement with 10% FBS), respectively.
Adherent cells were digested with 0.25% pancreatin-EDTA (Gibco). The suspension cells were collected by centrifugation. The supernatant was discarded and the cell pellet was resuspended and counted. Different cell concentrations (5˜10×10^4 cells/mL) were prepared according to the growth cycle of each cell line and then seeded on a 96-well plate (Corning), 100 μL/well. The cells were incubated overnight at 37° C., 5% CO2. The compounds were added to the cells on the second day with 2 wells in parallel. The final concentration of organic solvent shall not exceed 1%. The cells were continually incubated for 3 to 5 days, and then subjected to MTT assay.
The compound of the present invention and the control compound were dissolved in DMSO (Sigma) respectively, with the purity of more than 98%. The compound was stored in a concentration of 10 mM at −20° C. and diluted to 2- or 10-fold series prior to use.
Dojindo CCK8 reagent kit was used as MTT assay. THERMO […] FC meter was used as microplate reader.
For adherent cells, culture medium was removed and immediately replaced with the fresh prepared medium which contains 10% CCK8 reagent (100 μL/well). For the suspension cells, CCK8 was directly added to 10% of the final concentration. The cells were continually incubated for 1˜4 h. When a dark yellow color could be observed in the solvent control wells, the absorbance value at OD450 nm was measured and the cell growth rate was calculated according to the following formula: Cell Growth Rate (%)=100*(T−T0)/(C−T0) T=optical density of drug treatment cell well—optical density of blank control well; T0=optical density of cell well before drug treatment—optical density of blank control well; C=optical density of cell well of solvent control group—optical density of blank control well. The concentration value of 50% inhibition of cell growth (GI50) was calculated according to the drug concentration and cell growth rate curve. The experiment was independently repeated 1˜3 times, and subject to biological statistical analysis. 4. Experimental Results
Tumor cell growth inhibition test was performed by selecting representative compounds (compounds 4, 11, 12, 16, 27, 68, 71, 77, 79, 89 and 116 of the present invention). The initial concentration of the compound was 5,000 nM, then it was serially diluted by 2-fold or 10-fold to 0.01 nM. The GI50 value of each test compound was calculated according to the GI50 assay and calculation method. […]

CC(C)(C)c1cc(NC(=O)Nc2ccc(-n3cnc4ccccc43)cc2)[nH]n1 [Compound 68, 1-(4-benzimidazol-1-yl-phenyl)-3-(5-tert-butyl-2H-pyrazol-3-yl)-urea]
Tumor Inhibition Rate (%) ([1]; Dose 2.5 mg/kg, Day 6): 14.6%
Tumor Inhibition Rate (%) ([1]; Dose 2.5 mg/kg, Day 10): 16.2%
Tumor Inhibition Rate (%) ([1]; Dose 2.5 mg/kg, Day 15): 17.8%
Tumor Inhibition Rate (%) ([1]; Dose 2.5 mg/kg, Day 20): 37.5%
Tumor Inhibition Rate (%) ([1]; Dose 2.5 mg/kg, Day 28): 35.3%
Tumor Inhibition Rate (%) ([1]; Dose 5 mg/kg, Day 6): 67.9%
Tumor Inhibition Rate (%) ([1]; Dose 5 mg/kg, Day 10): 71.6%
Tumor Inhibition Rate (%) ([1]; Dose 5 mg/kg, Day 15): 58.5%
Tumor Inhibition Rate (%) ([1]; Dose 5 mg/kg, Day 20): 50.1%
Tumor Inhibition Rate (%) ([1]; Dose 5 mg/kg, Day 28): 62.5%
Tumor Inhibition Rate (%) ([1]; Dose 10 mg/kg, Day 6): 68.9%
Tumor Inhibition Rate (%) ([1]; Dose 10 mg/kg, Day 10): 81.7%
Tumor Inhibition Rate (%) ([1]; Dose 10 mg/kg, Day 15): 90.2%
Tumor Inhibition Rate (%) ([1]; Dose 10 mg/kg, Day 20): 94.8%
Tumor Inhibition Rate (%) ([1]; Dose 10 mg/kg, Day 28): 98.7%
Tumor Inhibition Rate (%) ([1]; Dose 25 mg/kg, Day 6): 86.0%
Tumor Inhibition Rate (%) ([1]; Dose 25 mg/kg, Day 10): 92.5%
Tumor Inhibition Rate (%) ([1]; Dose 25 mg/kg, Day 15): 93.4%
Tumor Inhibition Rate (%) ([1]; Dose 25 mg/kg, Day 20): 96.7%
Tumor Inhibition Rate (%) ([1]; Dose 25 mg/kg, Day 28): 100.0%
Tumor Inhibition Rate (%) ([1]; Dose 50 mg/kg, Day 6): 92.8%
Tumor Inhibition Rate (%) ([1]; Dose 50 mg/kg, Day 10): 98.7%
Tumor Inhibition Rate (%) ([1]; Dose 50 mg/kg, Day 15): 100.0%
Tumor Inhibition Rate (%) ([1]; Dose 100 mg/kg, Day 6): 94.2%
Tumor Inhibition Rate (%) ([1]; Dose 100 mg/kg, Day 10): 100.0%
Tumor Inhibition Rate (%) ([1]; Dose 100 mg/kg, Day 15): 100.0%
Tumor Inhibition Rate (%) ([1]; Dose 200 mg/kg, Day 6): 98.9%
Tumor Inhibition Rate (%) ([1]; Dose 200 mg/kg, Day 10): 100.0%
Tumor Inhibition Rate (%) ([1]; Dose 200 mg/kg, Day 15): 100.0%
effect on body weight of nude mice ([1]; dose ≤25 mg/kg, compared with the solvent control group): no significant effect
inhibition rate of tumor growth ([1]; dose ≥25 mg/kg, oral gavage, 6th day after administration): more than 80%
tumor outcome ([1]; dose ≥25 mg/kg, oral gavage, 28th day): tumor disappears completely
GI50 (NCI-H292 (EGFR WT)): > 2.5 µM
